In US20260042754A1, “Substituted Bicyclic Heteroaryl Sulfonamide Derivatives for the Treatment of Cancer” (NODUS ONCOLOGY LIMITED, priority 2022, published 2026):
pIC50: −log10 of the molar value.

Tests used:
[1] = molecular target: Recombinant His-tagged human PARG protein (Homo sapiens (Human), UniProt Q86W56); assay: PARG enzymatic assay (TFMU-ADPr fluorescence); format: biochemical; conditions: 1 nM enzyme, 200 μM TFMU-ADPr, read after 30 minutes
Procedure, shortened: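 Sf21-expressed His-tagged human PARG (1 nM) preincubated 15 min with compound (8-point series, 0.5% DMSO) in pH 7.4 phosphate/KCl/β-mercaptoethanol buffer, then 200 μM TFMU-ADPr added. Fluorescence (ex 380/em 535 nm) read after 30 min; IC50 from 4-parameter logistic fit, no-enzyme control as bottom.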

[2] = molecular target: human PARG (PARG-NanoLuc fusion in HEK293T cells) (Homo sapiens (Human), UniProt Q86W56); assay: PARG NanoBRET-based cellular target engagement assay; format: cell-based; conditions: HEK293T cells transfected with PARG-NanoLuc, NanoBRET probe 0.89 μM, 2 hours; read-out: PARG TE IC50
human PARG (PARG-NanoLuc fusion in HEK293T cells), sequence (Q86W56 whole entry, the tested form may be a part): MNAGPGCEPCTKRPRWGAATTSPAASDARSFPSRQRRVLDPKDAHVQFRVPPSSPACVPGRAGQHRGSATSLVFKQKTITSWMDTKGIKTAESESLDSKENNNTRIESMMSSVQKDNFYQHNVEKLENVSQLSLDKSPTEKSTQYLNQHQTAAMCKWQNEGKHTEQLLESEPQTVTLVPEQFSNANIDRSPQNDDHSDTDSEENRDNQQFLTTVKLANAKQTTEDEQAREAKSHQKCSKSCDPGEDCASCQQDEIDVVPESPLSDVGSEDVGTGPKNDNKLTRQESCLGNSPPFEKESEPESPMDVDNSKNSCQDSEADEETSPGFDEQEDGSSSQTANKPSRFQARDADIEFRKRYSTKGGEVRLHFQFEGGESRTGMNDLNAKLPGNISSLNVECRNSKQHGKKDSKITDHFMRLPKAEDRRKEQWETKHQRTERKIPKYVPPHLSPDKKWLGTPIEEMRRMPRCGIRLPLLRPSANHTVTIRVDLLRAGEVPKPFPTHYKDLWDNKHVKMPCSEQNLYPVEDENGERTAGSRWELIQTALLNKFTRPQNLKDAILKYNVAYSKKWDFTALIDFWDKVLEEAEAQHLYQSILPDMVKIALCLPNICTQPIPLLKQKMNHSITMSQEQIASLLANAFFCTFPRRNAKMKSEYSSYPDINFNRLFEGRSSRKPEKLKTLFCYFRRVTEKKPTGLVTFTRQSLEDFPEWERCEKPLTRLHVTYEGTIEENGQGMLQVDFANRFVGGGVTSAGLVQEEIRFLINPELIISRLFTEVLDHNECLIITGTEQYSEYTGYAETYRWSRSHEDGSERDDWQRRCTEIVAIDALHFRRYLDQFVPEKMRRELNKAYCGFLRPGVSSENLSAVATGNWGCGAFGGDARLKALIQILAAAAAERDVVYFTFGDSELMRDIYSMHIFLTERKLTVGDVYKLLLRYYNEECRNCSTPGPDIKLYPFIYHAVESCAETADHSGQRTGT
Procedure, shortened: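 HEK293T cells transiently expressing full-length human PARG with C-terminal NanoLuc, plated 24 h, then given compound (8-point series, 0.5% DMSO) for 15 min at room temperature. NanoBRET tracer added at 0.89 μM final, 2 h at 37° C.; BRET ratio (460/645 nm) fitted by 4-parameter logistic to give IC50.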

Recombinant His-tagged human PARG protein, sequence (Q86W56 whole entry): as the sequence (Q86W56 whole entry, the tested form may be a part) above

Row | pIC50 [1] | pIC50 [2] | SMILES
1 | > 7.52 | 7.00 to 7.52 | CO/N=c1\[nH]c2ccc(S(=O)(=O)NC3(C)CC3)cc2c(=O)n1Cc1cnc(C)s1 [Example 1, 2-methoxyimino-N-(1-methylcyclopropyl)-3-[(2-methylthiazol-5-yl)methyl]-4-oxo-1H-quinazoline-6-sulfonamide]
2 | 7.00 to 7.52 | 6.00 to 7.00 | CO/N=c1\[nH]c2ccc(S(=O)(=O)NC3(C)COC3)cc2c(=O)n1Cc1cnn(C)c1 [Example 2, 2-methoxyimino-N-(3-methyloxetan-3-yl)-3-[(1-methylpyrazol-4-yl)methyl]-4-oxo-1H-quinazoline-6-sulfonamide]
3 | > 7.52 | 6.00 to 7.00 | Cc1nc(C)c(CO/N=c2\[nH]c3ccc(S(=O)(=O)NC4(C)CC4)cc3c(=O)n2Cc2cnn(C)c2)s1 [Example 3, 2-[(2,4-dimethylthiazol-5-yl)methoxyimino]-N-(1-methylcyclopropyl)-3-[(1-methylpyrazol-4-yl)methyl]-4-oxo-1H-quinazoline-6-sulfonamide]
4 | > 7.52 | > 7.52 | CO/N=c1\[nH]c2c(-c3ccc(C(=O)N(C)C)cc3)cc(S(=O)(=O)NC3(C)CC3)cc2c(=O)n1Cc1cnn(C)c1 [Example 5, 4-[2-methoxyimino-6-[(1-methylcyclopropyl)sulfamoyl]-3-[(1-methylpyrazol-4-yl)methyl]-4-oxo-1H-quinazolin-8-yl]-N,N-dimethyl-benzamide]
5 | > 7.52 | > 7.52 | CO/N=c1\[nH]c2c(N3CCN[C@H](C)C3)cc(S(=O)(=O)NC3(C)CC3)cc2c(=O)n1Cc1cnn(C)c1 [Example 7, 2-methoxyimino-N-(1-methylcyclopropyl)-3-[(1-methylpyrazol-4-yl)methyl]-4-oxo-8-[(3R)-3-methylpiperazin-1-yl]-1H-quinazoline-6-sulfonamide]
6 | > 7.52 | > 7.52 | CON=c1[nH]c2c(N3CCN(C(=O)C4(C)CC4)[C@H](C)C3)cc(S(=O)(=O)NC3(C)CC3)cc2c(=O)n1Cc1cnn(C)c1 [Example 8, 2-methoxyimino-N-(1-methylcyclopropyl)-3-[(1-methylpyrazol-4-yl)methyl]-4-oxo-8-[(3R)-3-methyl-4-(1-methylcyclopropanecarbonyl)piperazin-1-yl]-1H-quinazoline-6-sulfonamide]
